The text below walks through data of patent US20050031651A1, “Therapeutic formulations for the treatment of beta-amyloid related diseases” (priority 2002, published 2005).

For data set [1], the system named is amyloid deposits. The settings on record: mice genetically prone to overproduce amyloid-β; nine week period; cited from earlier work.
Data set [2] concerns SM-4 cells. The settings on record: cited from earlier work.
Data set [3] concerns mild and moderate Alzheimer's disease patients. The conditions noted are these: reference value, cited from earlier work.
The test system of data set [4] is Aβ CSF concentration. Description: Aβ CSF concentration of patients at time 0 and 3 months (FPLC, ELISA). In kind it is in vivo, human. The settings on record: for effect on CSF level of Aβ: 3-month period. How it is done: The alkanesulfonic acid used in the study is known to have an effect on the concentration of Aβ in the brain. We also determined the effect of test compound on the change in Aβ CSF levels of patients with mild to moderate Alzheimer's disease compared to that seen in patients treated with a triple combination of test compound with AChEi and statin.
Patients treated with alkanesulfonic acid test compound in the presence or absence of AChEi and statin were evaluated for their Aβ CSF concentration at time 0 and 3 months following the initiation of treatment with the alkanesulfonic acid. The change in AP42 CSF concentration was compared to the respective placebo group.
(§1) Methodology. CSF was obtained from patients before and after treatment with the test compound at daily doses of 100 mg, 200 mg, or 300 mg. CSF was fractionated by FPLC following treatment with formic acid, and then the Aβ containing fraction was lyophilised. The amount of Aβ peptide was measured using an ELISA assay (Biosource). […] The presence of the alkanesulfonic acid in the CSF was determined in patients who had received treatment for three months. In these patients, CSF was collected five hours following dosing, and levels of alkanesulfonic acid were determined by LC-MS/MS.
(ELISA stands for enzyme-linked immunosorbent assay.)

Data set [5] deals with AP42 in the brain. The conditions noted are these: transgenic mice; previously shown; cited from earlier work.
Data set [6] deals with mild and moderate Alzheimer's disease patients. Description: Change in ADAS-Cog score of Alzheimer's patients over nine months of treatment. Format: in vivo, human. The conditions noted are these: Mild + Moderate AD patients combined, observed, negative change = improvement. The text has this:
In this example, mild and moderate patients have been treated with an alkanesulfonic acid, namely 3-amino-1-propanesulfonic acid, in combination with other therapeutic compounds used to diminish symptoms characteristic of Alzheimer's disease (e.g., loss of cognitive functions). The examples comprise the use of an alkanesulfonic acid in combination with cognitive enhancers such as acetylcholine esterase inhibitors (“AChEi”). The effect of these combination therapies on the change in ADAS-cog score in the patients was determined.
Patients were treated with the test alkanesulfonic acid for a period of 9 months. A group of patients received the test compound alone while another group were treated with the test compound in combination with an AChEi, namely donepezil.
Effect on ADAS-Cog. Upon entering the study, Alzheimer's patients were categorized as being “mild” or “moderate” according to their MMSE (“Mini Mental State Examination”) score. B.W.Rover, et al., “Mini-mental state exam in clinical practice.” Hospital Practice 22(1 A), 99 et seq. (1987). (According to this examination a MMSE score in the range of 19 to 26 was considered “mild,” and a score in the range 13 to 18 was considered “moderate”). Then, the change in mental function of these patients was analyzed by using their ADAS-Cog scores, which were recorded periodically over a nine month period. […]

Data set [7] can be described thus: Presence of the alkanesulfonic acid in CSF of patients (LC-MS/MS). Format: in vivo, human. The settings on record: patients treated three months, CSF collected five hours following dosing, 100, 200 or 300 mg daily. How it is done: as §1

Read-outs that look alike come from different tables or passages of the source.

In the case of `Oc1c(I)cc(Cl)c2cccnc12` [Clioquinol, 5-chloro-7-iodo-8-hydroxyquinoline], in data set [1], the adverse effects entry is recorded as “no adverse effects” and the amyloid deposits entry is on record as “cut amyloid deposits in half”.
Take `Cc1cccc(Nc2cc(Cl)nc(SCC(=O)O)n2)c1C` [pirinixic acid]: the “Aβ42 production or release from SM-4 cells” value in data set [2] (concentration-dependent manner) is given as “decrease in Aβ42 production or release”.
As to `CCOC(=O)C(C)(C)Oc1ccc(Cl)cc1` [clofibrate, ethyl 2-(p-chlorophenoxy)-2-methylpropionate], the Aβ42 extracellular levels entry in data set [2] (SM-4 cells, concentration range of 50-500 μM) is listed as “increase Aβ42 extracellular levels”.
In the case of `COc1cc2c(cc1OC)C(=O)C(CC1CCN(Cc3ccccc3)CC1)C2` (centres unmarked) [AchEi, donepezil], the “Change in ADAS-Cog over 9 months” value in data set [3] (Mild AD patient group) is given as “+5.0 reference”; in data set [3] (Moderate AD patient group) it was “+2.5 reference”.
For `NCCCS(=O)(=O)O` [Test compound, 3-amino-1-propanesulfonic acid], the “effect on CSF level of Aβ” value in data set [4] (100 mg daily doses, majority of patients) is given as “stable Aβ CSF levels”; in data set [4] (200 or 300 mg daily doses) it was “reduce the CSF level of Aβ”. In addition, the “decrease in Aβ CSF concentration” value in data set [4] (mild to moderate AD patients, time 0 vs 3 months after start of treatment) turned out to be 34%. In data set [4] (vs placebo (test compound) or vs AChEi and statin (triple therapy), 3 months), the “difference in change of Aβ CSF concentration compared to the respective control group” value was determined as 49%. Moreover, in data set [5], the “levels of soluble and insoluble AP42 in the brain” value is “decrease the levels of both soluble and insoluble AP42”. Besides, the “Change in ADAS-Cog over 9 months” value in data set [6] is recorded as −0.5 observed; in data set [6] (listed as test compound), −0.5. Further, in data set [7], the “presence of the alkanesulfonic acid in CSF” value is listed as “present in CSF of patients in a dose-dependent manner”.
